Values of other authors as cited in patent US10188593B2, “Polysaccharide delivery particle” (Spray-Tek, Inc., priority 2016, dated 2019).

Settings: perfume oil ingredients

First: CCC=C(C)C(O)CCCCC (centres unmarked) [Undecavertol]
Second: CCCCCCOC(C)=O [Hexyl_acetate]
The “Octanol/water Partition Coefficient (logP)” value of the first is higher: 3.06 for the first, 2.64 for the second.

Going from CC(C)=CCCC(C)CCO (single isomer, unassigned; (-)) [(−)-Citronellol] to CC(=O)OCCC(C)CCC=C(C)C (centres unmarked) [Citronellyl_acetate], the “Octanol/water Partition Coefficient (logP)” value rises from 2.76 to 3.7.

First: CC(=O)/C=C/C1=C(C)CCCC1(C)C [beta-Ionone]
Second: C=C(C)[C@H]1CC=C(C)CC1 [d-Limonene]
The “Octanol/water Partition Coefficient (logP)” value of the first is lower: 4.02 for the first, 4.38 for the second.

Compared with C=CCOC(=O)COCCC(C)C [Allyl_amyl_glycolate], C=CC(C)CCCC(C)(C)O (centres unmarked) [Dihydromyrcenol] is higher in “Octanol/water Partition Coefficient (logP)” value: 2.81 for the first, 3.08 for the second.

Going from CC(C)c1cccc(C(C)CC=O)c1 (centres unmarked) [Florhydral] to CCOc1cc(C=O)ccc1O [Ethyl_vanillin], the “Octanol/water Partition Coefficient (logP)” value falls from 3.59 to 1.53.

First: CCOC(=O)C(C)CC (centres unmarked) [Ethyl_2-methylbutyrate]
Second: C=CC(C)(O)CCC=C(C)C (centres unmarked) [Linalool]
The “Octanol/water Partition Coefficient (logP)” value of the first is lower: 1.91 for the first, 2.44 for the second.

Going from CC=Cc1ccc(O)c(OC)c1 [Isoeugenol] to CCCCCCCCCCCC#N [Lauronitrile], the “Octanol/water Partition Coefficient (logP)” value rises from 1.85 to 4.84.
